Measurements as given in patent US6548544B1, “Method of treatment of priapism without raising systemic blood pressure” (The National University of Singapore, priority 1999, dated 2003).

Assays:
[1] = test system: Pharmacologically Induced Prolonged Erection (Pipe); experiment: Effect on papaverine- and phenoxybenzamine-induced prolonged erection (PIPE), penile length, baboons; format: in vivo, baboon; conditions: for increase in penile length: intracavernous papaverine (40 mg) or phenoxybenzamine (3 mg), within 10 min after administration
Method: Six male baboons weighing between 8 kg and 12 kg were used for the experiment. The animals were sedated with ketamine and anaesthetised with intravenous pentobarbitone injected through an indwelling venous catheter. Drugs were injected into the right corpora cavornosa at the mid-third of the shaft using a 29G needle and 1 ml syringe. Blood pressure was monitored through a cannulated femoral artery connected to the transducer. A measuring tape was used to measure penile length visually from a marked point at the base of the penis to the tip of urethral orifice. Changes in penile length were recorded for a period of 100 min after injection.
Intracavernous injection of papaverine (40 mg) or phenoxybenzamine (3 mg) which produced maximal penile length within 20 and 40 min were repeated one week later and prostaglandin A2 was given at the peak time of the turgidity.
In baboons, intracavernous injection of papaverine (40 mg) or phenoxybenzamine (3 mg) produced a 130% increase in penile length within […] after administration (Table 1). This increase in penile length lasted for more than 100 min. This was repeated one week later and when prostaglandin A2 was injected intracavernosally at the maximum rigidity 20 min after the drug administration, the latter produced a marked reduction in penile length and within 40 min of injection, the penile size reduced to the original state of rugosity (Table 1). The fall in systemic blood pressure produced by prostaglandin A2 ranged from 8 to 16 mmHg. Each value reported in Table 1 represents the mean of six experiments.

cavernosum = experiment: Other prostaglandins tested using the above protocol (contraction of the cavernosum); format: in vivo; conditions: testing using the above protocol "will demonstrate"

Q: `COc1ccc(Cc2nccc3cc(OC)c(OC)cc23)cc1OC` [Papaverine, papaverine] was tested. Which “increase in penile length” value [1] did it give?
A: Its value is 130%.

Q: And the “Mean Change in Penile Length (% of Control)” value (“Mean Change … (% of Control)” below) ([1]; papaverine 40 mg intracavernous alone, 1 min after injection)?
A: Its value is 30%.

Q: What about the “Mean Change … (% of Control)” value ([1]; papaverine 40 mg intracavernous alone, 2 min after injection) of the same compound?
A: Its value is 40%.

Q: And the “Mean Change … (% of Control)” value ([1]; papaverine 40 mg intracavernous alone, 5 min after injection)?
A: The value was 52%.

Q: And the “Mean Change … (% of Control)” value ([1]; papaverine 40 mg intracavernous alone, 10 min after injection)?
A: The value was 130%.

Q: What about the “Mean Change … (% of Control)” value ([1]; papaverine 40 mg intracavernous alone, 20 min after injection) of the same compound?
A: Its value is 130%.

Q: And the “Mean Change … (% of Control)” value ([1]; papaverine 40 mg intracavernous alone, 40 min after injection)?
A: The value was 130%.

Q: What about the “Mean Change … (% of Control)” value ([1]; papaverine 40 mg intracavernous alone, 60 min after injection) of the same compound?
A: The value was 130%.

Q: What about the “Mean Change … (% of Control)” value ([1]; papaverine 40 mg intracavernous alone, 80 min after injection) of the same compound?
A: The value was 130%.

Q: And the “Mean Change … (% of Control)” value ([1]; papaverine 40 mg intracavernous alone, 100 min after injection)?
A: Its value is 130%.

Q: How did the “increase in penile length” value [1] turn out when `CC(COc1ccccc1)N(CCCl)Cc1ccccc1` (centres unmarked) [Phenoxybenzamine, phenoxybenzamine] was run?
A: Its value is 130%.

Q: And the “Mean Change … (% of Control)” value ([1]; phenoxybenzamine 3 mg intracavernous alone, 1 min after injection)?
A: The value was 10%.

Q: What about the “Mean Change … (% of Control)” value ([1]; phenoxybenzamine 3 mg intracavernous alone, 2 min after injection) of the same compound?
A: The value was 15%.

Q: What about the “Mean Change … (% of Control)” value ([1]; phenoxybenzamine 3 mg intracavernous alone, 5 min after injection) of the same compound?
A: The value was 15%.

Q: And the “Mean Change … (% of Control)” value ([1]; phenoxybenzamine 3 mg intracavernous alone, 10 min after injection)?
A: Its value is 48%.

Q: And the “Mean Change … (% of Control)” value ([1]; phenoxybenzamine 3 mg intracavernous alone, 20 min after injection)?
A: The value was 80%.

Q: What about the “Mean Change … (% of Control)” value ([1]; phenoxybenzamine 3 mg intracavernous alone, 40 min after injection) of the same compound?
A: The value was 120%.

Q: What about the “Mean Change … (% of Control)” value ([1]; phenoxybenzamine 3 mg intracavernous alone, 60 min after injection) of the same compound?
A: Its value is 120%.

Q: And the “Mean Change … (% of Control)” value ([1]; phenoxybenzamine 3 mg intracavernous alone, 80 min after injection)?
A: Its value is 120%.

Q: What about the “Mean Change … (% of Control)” value ([1]; phenoxybenzamine 3 mg intracavernous alone, 100 min after injection) of the same compound?
A: The value was 120%.

Q: `CCCCC[C@H](O)/C=C/[C@H]1C=CC(=O)[C@@H]1CCCCCCC(=O)O` [prostaglandin A1] was tested. Which “contraction of the cavernosum” value (cavernosum) did it give?
A: Its value is “effective in inducing, promoting, or otherwise facilitating contraction of the cavernosum but are not as active as prostaglandin A2”.

Q: How did the “contraction of the cavernosum” value (cavernosum) turn out when `CCCCC[C@H](O)/C=C/C1=C(CCCCCCC(=O)O)C(=O)CC1` [prostaglandin B1] was run?
A: Its value is “effective in inducing, promoting, or otherwise facilitating contraction of the cavernosum but are not as active as prostaglandin A2”.

Q: For `CCCCC[C@H](O)/C=C/C1=C(C/C=C\CCCC(=O)O)C(=O)CC1` [prostaglandin B2], which “contraction of the cavernosum” value (cavernosum) is on record?
A: The value was “effective in inducing, promoting, or otherwise facilitating contraction of the cavernosum but are not as active as prostaglandin A2”.
